{
  "source": "patent US10114013B2",
  "about": "“Method for detection of coenzyme Q10” (Berg LLC, priority 2012, dated 2018)",
  "key": {"HepG2 cells [1]": {"test_system": "HepG2 cells", "test": "CoQ10 level in HepG2 cells after CoQ10 treatment; Buffer A/B/C extraction, UV spectrophotometry at 275 nm", "format": "in vitro ADME", "details": "for average level of CoQ10 in cells: Hep2G cells; for CoQ10 / Conc (pM/cell): HepG2 cells, OD275 detection, replicates 1-3", "experimental": "(§1) The assay for quantitation of CoQ10 was used to determine the CoQ10 levels in various cells lines after CoQ10 treatment for various times. The cell lines used in the studies were the normal human aortic smooth muscle cells (HASMC), the hepatic cancer cell line HepG2, and the human pancreatic carcinoma cell line PaCa2. All cells lines are commercially available and were maintained according to instruction from the manufacturer/supplier of the cell lines.\n200 μl of various concentrations of CoQ10 in Buffer A, or Buffer A alone, were aliquoted into glass vials and 10 μl of Buffer B was added to each vial. Cells treated with various concentrations of CoQ10 were collected at predetermined time points and washed. Cell pellet samples (e.g., about 10^5-10^7 cells) were combined with 200 μl of Buffer A and 10 μl of Buffer B, and the cell pellets were resuspended in the buffer mixture. The sample mixture turned opaque upon mixing Buffers A and B with cells. The mixtures were transferred into glass vials.\nThe glass vials from step 2 were warmed to 65° C. for 1 minute. The samples turned clear upon heating, and again became opaque upon cooling to room temperature.\nA 200 μl aliquot of Buffer C was added to each vial. The vials were again warmed to 65° C. The solution in the vials spontaneously partitioned into two phases, with the second extraction buffer layer (upper layer) containing substantially all of the CoQ10 material.\nA 50 μl sample of the upper extraction layer was removed and analyzed on a UV spectrometer at 275 nm. The amount of CoQ10 in each sample was determined by comparison to a standard curve.\nIn the experimental trials, about 1×10^6 HASMC, HepG2, or PaCa2 cells were plated into each well of a 6 well plate. At the time of plating, the cells were treated with defined concentrations of CoQ10, in triplicate, in isopropanol or a proprietary CoQ10 delivery formulation for 3, 6, or 24 hours. After the defined incubation time, the cells were washed with cold TPBS (PBS with 100 mM Tris, pH 7.4), harvested by trypsinization, washed (2×) with 1 ml of TPBS, and pelleted by centrifugation at 1,500 RPM. Immediately after trypsinization, the cells were counted to determine the total number of viable cells in the sample.\nCell pellets were resuspended in 200 μL of Buffer A (first extraction buffer) and 10 μL of Buffer B (surfactant/detergent). Upon addition of Buffer B, the sample became opaque and a precipitate formed. The resuspended cells were transferred to a borosilicate vial. For control samples not containing cells, the CoQ10 containing solution was added to a glass vial and hexane was added to bring the volume to 200 μl, and 10 μl of Buffer B was then added.\nThe vials were incubated at 65° C. for 2 minutes in a water bath, with gentle mixing at about half way through the incubation. The sample changed from cloudy to clear during the incubation. The sample was removed from the water bath and 200 μL of Buffer C (second extraction buffer) was added to the vial. The sample partitioned into two phases, polar and non-polar. The top, non-polar, layer was clear, while a white precipitate formed the bottom of the vial. The sample was again heated at 65° C. for 1 minute with gentle mixing about half way through the incubation. The solution was cooled to room temperature and a 75 μL aliquot of the upper phase was placed in a quartz cuvette and analyzed by UV spectrophotometry at a wavelength of 275 nm. The absorption was documented.\nFor quantitative assessment of CoQ10 in the biological samples, a standard curve was generated essentially as set forth above (Example 2). For each independent determination of CoQ10, the standard curve was generated by making a 50 μM CoQ10 stock solution in hexane and serially diluting of the stock material. Each of the samples from the serial dilution was measured at a wavelength of 275 nm in a UV spectrometer and plotted on a graph. […]"}, "HepG2 cells [2]": {"test_system": "HepG2 cells", "test": "CoQ10 level in HepG2 cells after CoQ10 treatment; extraction with methanol alone, LC/MS/MS detection", "format": "in vitro ADME", "details": "100 μM CoQ10 in isopropanol, replicates 1-3", "experimental": "(§2) To further validate the utility of the spectrophotometric method for the quantitative assessment of CoQ10 in biological samples, the experiment described above was repeated using HASMC, HepG2, and PaCa2 cell lines. Further, a second set of cell samples were prepared using each of the three cell types for analysis to determine CoQ10 levels using LC/MS/MS methods routinely used in the art. Briefly, cells were plated and treated with CoQ10 in isopropanol or the CoQ10 proprietary delivery formulation as set forth above, and harvested at 3, 6, or 24 hours after plating. Cell pellets were either extracted using the method set forth above, resuspending the cells in Buffers A and B, and extracting the CoQ10 with Buffer C, or the cell pellets were sent to a diagnostic laboratory (IriSys Research & Development Inc) for quantitative assessment of CoQ10 using extraction with methanol alone followed by LC/MS/MS detection."}, "PaCa2 cells [3]": {"test_system": "PaCa2 cells", "test": "CoQ10 level in PaCa2 cells after CoQ10 treatment; extraction with methanol alone, LC/MS/MS detection", "format": "in vitro ADME, human", "details": "100 μM CoQ10 in isopropanol, replicates 1-3", "experimental": "as §2"}, "PaCa2 cells [4]": {"test_system": "PaCa2 cells", "test": "CoQ10 level in PaCa2 cells after CoQ10 treatment; Buffer A/B/C extraction, UV spectrophotometry at 275 nm", "format": "in vitro ADME, human", "details": "100 μM CoQ10 in isopropanol, OD275 detection, replicates 1-3", "excerpt": "as §1\nIn the experimental trials, about 1×10^6 HASMC, HepG2, or PaCa2 cells were plated into each well of a 6 well plate. […] Immediately after trypsinization, the cells were counted to determine the total number of viable cells in the sample. […]\nThe vials were incubated at 65° C. for 2 minutes in a water bath, with gentle mixing at about half way through the incubation. […] The solution was cooled to room temperature and a 75 μL aliquot of the upper phase was placed in a quartz cuvette and analyzed by UV spectrophotometry at a wavelength of 275 nm. […]\nFor quantitative assessment of CoQ10 in the biological samples, a standard curve was generated essentially as set forth above (Example 2). […] Each of the samples from the serial dilution was measured at a wavelength of 275 nm in a UV spectrometer and plotted on a graph.\nA power series was used to fit the standard curve from the standard and an equation was determined. […]"}},
  "note": "Where “and” joins values, the source holds several entries; their conditions need not be identical. Equal values may be shown once.",
  "data": [
    {"smiles": "COC1=C(OC)C(=O)C(C/C=C(\\C)CC/C=C(\\C)CC/C=C(\\C)CC/C=C(\\C)CC/C=C(\\C)CC/C=C(\\C)CC/C=C(\\C)CC/C=C(\\C)CC/C=C(\\C)CCC=C(C)C)=C(C)C1=O", "note": "[CoQ10, Coenzyme Q10]", "values": [
      {"measurement": "average level of CoQ10 in cells", "setting": "HepG2 cells [1]; 50 μM in propanol, 3 hours", "value": 14.40, "unit": "pM/cell"},
      {"measurement": "average level of CoQ10 in cells", "setting": "HepG2 cells [1]; 50 μM in propanol, 6 hours", "value": 27.07, "unit": "pM/cell"},
      {"measurement": "average level of CoQ10 in cells", "setting": "HepG2 cells [1]; 50 μM in propanol, 24 hours", "value": 37.04, "unit": "pM/cell"},
      {"measurement": "average level of CoQ10 in cells", "setting": "HepG2 cells [1]; 100 μM in propanol, 3 hours", "value": 25.20, "unit": "pM/cell"},
      {"measurement": "average level of CoQ10 in cells", "setting": "HepG2 cells [1]; 100 μM in propanol, 6 hours", "value": 34.74, "unit": "pM/cell"},
      {"measurement": "average level of CoQ10 in cells", "setting": "HepG2 cells [1]; 100 μM in propanol, 24 hours", "value": 45.43, "unit": "pM/cell"},
      {"measurement": "CoQ10", "setting": "HepG2 cells [1]; 50 μM CoQ10 in isopropanol", "value": "39.76 µM and 41.84 µM and 51.45 µM"},
      {"measurement": "Conc (pM/cell)", "setting": "HepG2 cells [1]; 50 μM CoQ10 in isopropanol", "value": "29.6 pM/cell and 30.7 pM/cell and 51.9 pM/cell"},
      {"measurement": "CoQ10", "setting": "HepG2 cells [1]; 100 μM CoQ10 in isopropanol", "value": "36.08 µM and 49.71 µM and 50.51 µM"},
      {"measurement": "Conc (pM/cell)", "setting": "HepG2 cells [1]; 100 μM CoQ10 in isopropanol", "value": "70.7 pM/cell and 121.2 pM/cell and 101 pM/cell"},
      {"measurement": "CoQ10", "setting": "HepG2 cells [2]", "value": "2.061 µM and 1.223 µM and 1.599 µM"},
      {"measurement": "Conc (pM/cell)", "setting": "HepG2 cells [2]", "value": "0.34 pM/cell and 0.24 pM/cell (2×)"},
      {"measurement": "CoQ10", "setting": "PaCa2 cells [3]", "value": "0.371 µM and 1.917 µM and 1.186 µM"},
      {"measurement": "Conc (pM/cell)", "setting": "PaCa2 cells [3]", "value": "0.31 pM/cell and 0.17 pM/cell and 0.12 pM/cell"},
      {"measurement": "CoQ10", "setting": "PaCa2 cells [4]", "value": "28.46 µM and 12.5 µM and 4.05 µM"},
      {"measurement": "Conc (pM/cell)", "setting": "PaCa2 cells [4]", "value": "1.56 pM/cell and 9.09 pM/cell and 3.2 pM/cell"}
    ]}
  ]
}
